Legend:
[1] = molecular target: T1, human RORγt (Ligand Binding Domain) (Homo sapiens, UniProt P51449); test: Fluorescence Polarization (FP) Assay; conditions: Fluorescence Polarization (FP) Assay; values given as upper bounds of activity ranges; read-out: FP activity range
T1 construct: purchased Crelux (Planegg, Germany) batch no PC5032-1
T1 sequence (P51449 269-508 limits assumed): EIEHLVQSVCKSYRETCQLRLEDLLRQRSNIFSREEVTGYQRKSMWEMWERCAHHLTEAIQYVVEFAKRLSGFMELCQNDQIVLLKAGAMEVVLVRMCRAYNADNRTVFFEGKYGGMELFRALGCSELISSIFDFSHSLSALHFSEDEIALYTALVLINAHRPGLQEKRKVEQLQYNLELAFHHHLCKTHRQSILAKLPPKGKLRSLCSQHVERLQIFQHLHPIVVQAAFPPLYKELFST
Method: (§1) The activity of the compounds was evaluated using a Fluorescence Polarization (FP) Assay and, in most cases, a Th17 Assay and/or RORγ Reporter assay (also referred to as Gal4 assay). The FP assay is an in vitro assay monitoring binding within the ligand binding pocket. The RORγ and the Th17 assays are both cell-based assays monitoring functional activity of the compound assayed.
The total volume was 25 μl, in a black Perkin Elmer OptiPlate. As negative control, 1 μl DMSO was used. […] The probe is a fluorescently labeled (TAMRA) RORγt ligand identified by Nuevolution with a total molecular weight of 910 g/mole as shown in Graph A in FIG. 1.

[2] = molecular target: T2, yeast Gal4-DNA binding domain fused to the ligand binding domain of human RORγ (Homo sapiens, UniProt P51449); test: RORγ Reporter Assay (Gal4); assay type: cell-based; conditions: values given as lower bounds of ranges; for Gal4 activity range @ 1 μM (% inhibition): RORγ Reporter Assay (Gal4) at 1 μM; for Gal4 activity range @ 0.1 μM (% inhibition): RORγ Reporter Assay (Gal4) at 0.1 μM
T2 construct: host or cells: HEK293t
T2 sequence (P51449 269-508 limits assumed): T1 sequence (P51449 269-508 limits assumed)
Method: as §1
Cell-based RORγ functional assays were performed using a commercially available assay product (INDIGO Biosciences, State College, Pa., USA; product # IB04001). The RORγ reporter cells are HEK293t cells transfected with one vector that provides high level constitutive expression of a hybrid protein comprised of the yeast Gal4-DNA binding domain fused to the ligand binding domain of human RORγ, and a second vector comprising the firefly luciferase cDNA functionally linked to the upstream activation sequence (UAS) of yeast Gal4. A suspension of RORγ Reporter Cells was prepared using the protocol and culture medium provided in the kit product, and 100 μl of the Reporter Cell suspension was then dispensed into wells of a white, collagen-treated, 96-well assay plate. Concentrated stocks of test compounds were prepared in DMSO, then further diluted using media provided in the kit to generate ‘2×-concentration’ treatment media. 100 μl of medium for each respective treatment concentration dispensed into triplicate assay wells, thereby combining with the reporter cells. All media formulations contained 10% charcoal stripped Fetal Bovine Serum, but are otherwise proprietary to INDIGO Biosciences. Final treatment concentrations for each test compound were 1,000 nM and 100 nM, each with 0.1% residual DMSO. Separate control treatments were media supplemented with vehicle only (0.1% DMSO) to determine the constitutive level of RORγ activity in the reporter cells, and the reference inverse-agonist ursolic acid (f.c. 6,000 nM to 8.2 nM in 3-fold decrements) to establish a positive control inverse-agonist dose response. Assay plates were placed in a 37° C., 5% CO2, 85% humidity incubator for 24 hour. Treatment media were then discarded, 100 μl of luciferase detection reagent was added to each well, and relative light units (RLUs) were quantified from each assay well using a plate reading luminometer. Values of average RLU+/−standard deviation were computed for all treatment sets, followed by the calculations of fold-reduction: [Average RLUVehicle/Average RLUTest Cmpd]. Percent-reduction of RORγ activity in response to respective test compound treatments was calculated: [100*(1−[Ave RLUTest Cmpd/Ave RLUVehicle)] where the theoretical minimum reduction (0% reduction) derives from Vehicle treatment only, no treatment compound.

SMILES | IC50 [1] [nM] | Gal4 activity range @ 1 μM (% inhibition) [2] [% inhibition] | Gal4 activity range @ 0.1 μM (% inhibition) [2] [% inhibition]
CC(C)(C)C[C@@H](Nc1ncnc(N2CCC[C@@H]2c2ccc(C(F)(F)F)cc2)c1F)C(N)=O (single isomer, unassigned) [Example 5, (2R)-2-[[5-fluoro-6-[(2R)-2-[4-(trifluoromethyl)phenyl]pyrrolidin-1-yl]pyrimidin-4-yl]amino]-4,4-dimethyl-pentanamide or (2R)-2-[[5-fluoro-6-[(2S)-2-[4-(trifluoromethyl)phenyl]pyrrolidin-1-yl]pyrimidin-4-yl]amino]-4,4-dimethyl-pentanamide] | < 500 |  | 
CC(C)(C)CC(Nc1ncnc(N2CCCC2c2ccc3ncccc3c2)c1F)C(N)=O (stereo in doubt) [Example 23, (2R)-2-[[5-fluoro-6-[2-(6-quinolyl)pyrrolidin-1-yl]pyrimidin-4-yl]amino]-4,4-dimethyl-pentanamide] | < 500 |  | 
CC(C)(C)CC(Nc1ncnc(N2CCCC2c2ccc3c(c2)OCCO3)c1F)C(N)=O (stereo in doubt) [Example 24, (2R)-2-[[6-[2-(2,3-dihydro-1,4-benzodioxin-6-yl)pyrrolidin-1-yl]-5-fluoro-pyrimidin-4-yl]amino]-4,4-dimethyl-pentanamide] | < 500 |  | 
CCC(C(=O)NCc1ccoc1C(N)=O)n1ccc2c(N3CCCC3c3ccc(-c4ccccc4)cc3)ncnc21 (stereo not drawn) [Example 4, 3-[[2-[4-[2-(4-phenylphenyl)pyrrolidin-1-yl]pyrrolo[2,3-d]pyrimidin-7-yl]butanoylamino]methyl]furan-2-carboxamide] | < 500 |  | 
NC(=O)[C@@H](Cc1cc(F)c(F)cc1F)Nc1ncnc(N2CCCC2c2nc3ccccc3s2)c1F (stereo partly drawn) [Example 9, (2R)-2-[[6-[2-(1,3-benzothiazo1-2-yl)pyrrolidin-1-yl]-5-fluoro-pyrimidin-4-yl]amino]-3-(2,4,5-trifluorophenyl)propanamide] | < 500 |  | 
CC(C)(C)C[C@@H](Nc1ncnc(N2CCCC2c2ccc(Cl)cc2Cl)c1F)C(N)=O (stereo partly drawn) [Example 11, (2R)-2-[[6-[2-(2,4-dichlorophenyl)pyrrolidin-1-yl]-5-fluoro-pyrimidin-4-yl]amino]-4,4-dimethyl-pentanamide] | < 500 |  | 
Cc1nc(N[C@H](CC(C)(C)C)C(N)=O)c(C)c(N2CCCC2c2ccc(C(F)(F)F)cc2)n1 (stereo partly drawn) [Example 15, (2R)-2-[[2,5-dimethyl-6-[2-[4-(trifluoromethyl)phenyl]pyrrolidin-1-yl]pyrimidin-4-yl]amino]-4,4-dimethyl-pentanamide] | < 10000 |  | 
CC(C)(C)CCNc1ncnc(N2CCCC2c2ccc(C(F)(F)F)cc2)c1F (stereo not drawn) [Example 21, N-(3,3-dimethylbutyl)-5-fluoro-6-[2-[4-(trifluoromethyl)phenyl]pyrrolidin-1-yl]pyrimidin-4-amine] | < 10000 |  | 
NC(=O)Cc1ccc(COc2ncnc(N3CCCC3c3ccc(C(F)(F)F)nc3)c2F)cc1 (stereo not drawn) [Example 84, 2-[4-[[5-fluoro-6-[2-[6-(trifluoromethyl)-3-pyridyl]pyrrolidin-1-yl]pyrimidin-4-yl]oxymethyl]phenyl]acetamide] |  | >20 | 
NC(=O)Cc1ncc(COc2ncnc(N3CCCC3c3ccc(C(F)(F)F)cc3)c2F)cn1 (stereo not drawn) [Example 86, 2-[5-[[5-fluoro-6-[2-[4-(trifluoromethyl)phenyl]pyrrolidin-1-yl]pyrimidin-4-yl]oxymethyl]pyrimidin-2-yl]acetamide] |  | >20 | 

Further lines, results first:

IC50 [1] [nM] | Gal4 activity range @ 1 μM (% inhibition) [2] [% inhibition] | Gal4 activity range @ 0.1 μM (% inhibition) [2] [% inhibition] | SMILES
< 1000 |  |  | NC(=O)Cc1ccc(CNc2ncnc(N3C[C@H](F)C[C@@H]3c3ccc(C(F)(F)F)cc3)c2F)cc1 (racemic) [Example 241, 2-[4-[[[5-fluoro-6-[(2R,4R)-4-fluoro-2-[4-(trifluoromethyl)phenyl]pyrrolidin-1-yl]pyrimidin-4-yl]amino]methyl]phenyl]acetamide AND 2-[4-[[[5-fluoro-6-[(2S,4S)-4-fluoro-2-[4-(trifluoromethyl)phenyl]pyrrolidin-1-yl]pyrimidin-4-yl]amino]methyl]phenyl]acetamide]
< 2000 |  |  | NC(=O)Cc1ccc(CNc2ncnc(N3C[C@H](F)C[C@H]3c3ccc(C(F)(F)F)cc3)c2F)cc1 (racemic) [Example 242, 2-[4-[[[5-fluoro-6-[(2S,4R)-4-fluoro-2-[4-(trifluoromethyl)phenyl]pyrrolidin-1-yl]pyrimidin-4-yl]amino]methyl]phenyl]acetamide AND 2-[4-[[[5-fluoro-6-[(2R,4S)-4-fluoro-2-[4-(trifluoromethyl)phenyl]pyrrolidin-1-yl]pyrimidin-4-yl]amino]methyl]phenyl]acetamide]
 | >20 |  | NC(=O)Cc1ncc(CNc2ncnc(N3CCCC3c3ccc(C(F)(F)F)cc3)c2F)cn1 (stereo not drawn) [Example 87, 2-[5-[[[5-fluoro-6-[2-[4-(trifluoromethyl)phenyl]pyrrolidin-1-yl]pyrimidin-4-yl]amino]methyl]pyrimidin-2-yl]acetamide]
 | >20 | >0 | Cc1ccc(CNc2ncnc(-n3nncc3-c3ccc(C(F)(F)F)cc3)c2F)cn1 [Example 96, 5-fluoro-N-[(6-methyl-3-pyridyl)methyl]-6-[5-[4-(trifluoromethyl)phenyl]triazol-1-yl]pyrimidin-4-amine]
 | >50 | >20 | COc1nc(C)ccc1CNc1ncnc(N2CCCC2c2ccc(C(F)(F)F)cc2)c1F (stereo not drawn) [Example 99, 5-fluoro-N-[(2-methoxy-6-methyl-3-pyridyl)methyl]-6-[2-[4-(trifluoromethyl)phenyl]pyrrolidin-1-yl]pyrimidin-4-amine]
 | >20 | >0 | Cc1ccc(CNc2ncnc(N3CCCC3c3ccc(C(F)(F)F)cc3O)c2F)cn1 (stereo not drawn) [Example 104, 2-[1-[5-fluoro-6-[(6-methyl-3-pyridyl)methylamino]pyrimidin-4-yl]pyrrolidin-2-yl]-5-(trifluoromethyl)pheno1]
 | >20 | >0 | Cc1nc(CNc2ncnc(N3CCCC3c3ccc(C(F)(F)F)cc3)c2F)ccc1C(C)O (stereo not drawn) [Example 112, 1-[6-[[[5-fluoro-6-[2-[4-(trifluoromethyl)phenyl]pyrrolidin-1-yl]pyrimidin-4-yl]amino]methyl]-2-methyl-3-pyridyl]ethanol]
 |  | >50 | O=C(O)Cc1ccc(CNc2ncnc(N3CCC[C@@H]3c3ccc(C(F)(F)F)cc3)c2F)cc1 [Example 117, 2-[4-[[[5-fluoro-6-[(2R)-2-[4-(trifluoromethyl)phenyl]pyrrolidin-1-yl]pyrimidin-4-yl]amino]methyl]phenyl]acetic acid]
 | >50 | >20 | O=C(c1ccncc1)N1CCC(Nc2ncnc(N3CCCC3c3ccc(C(F)(F)F)cc3)c2F)C1 (stereo not drawn) [Example 121, [3-[[5-fluoro-6-[2-[4-(trifluoromethyl)phenyl]pyrrolidin-1-yl]pyrimidin-4-yl]amino]pyrrolidin-1-yl]-(4-pyridyl)methanone]
 | >20 |  | O=C1CCCN1Cc1ccc(CNc2ncnc(N3CCCC3c3ccc(C(F)(F)F)cc3)c2F)cc1 (stereo not drawn) [Example 124, 1-[[4-[[[5-fluoro-6-[2-[4-(trifluoromethyl)phenyl]pyrrolidin-1-yl]pyrimidin-4-yl]amino]methyl]phenyl]methyl] pyrrolidin-2-one]
 | >50 | >20 | NC(=O)Cc1ccc(CNc2ncnc(N3CCCC3c3ccccc3)c2F)cc1 (stereo not drawn) [Example 279, 2-[4-[[[5-fluoro-6-(2-phenylpyrrolidin-1-yl)pyrimidin-4-yl]amino]methyl]phenyl]acetamide]
